{"source": "ChEMBL document CHEMBL5550160", "about": "“Leveraging a rationally designed veliparib-based anilide eliciting anti-leukemic effects for the design of pH-responsive polymer nanoformulation” (Eur J Med Chem, 2024)", "key": {"A549": {"system": "A549", "test": "cells", "assay_type": "functional, cell-based", "conditions": "Homo sapiens", "description": "Antiproliferative activity against human A549 cells assessed as inhibition of cell growth by MTT assay"}, "[1]": {"biological_target": "Histone deacetylase 9 (Homo sapiens) (UniProt Q9UKV0)", "sequence (Q9UKV0 whole entry)": "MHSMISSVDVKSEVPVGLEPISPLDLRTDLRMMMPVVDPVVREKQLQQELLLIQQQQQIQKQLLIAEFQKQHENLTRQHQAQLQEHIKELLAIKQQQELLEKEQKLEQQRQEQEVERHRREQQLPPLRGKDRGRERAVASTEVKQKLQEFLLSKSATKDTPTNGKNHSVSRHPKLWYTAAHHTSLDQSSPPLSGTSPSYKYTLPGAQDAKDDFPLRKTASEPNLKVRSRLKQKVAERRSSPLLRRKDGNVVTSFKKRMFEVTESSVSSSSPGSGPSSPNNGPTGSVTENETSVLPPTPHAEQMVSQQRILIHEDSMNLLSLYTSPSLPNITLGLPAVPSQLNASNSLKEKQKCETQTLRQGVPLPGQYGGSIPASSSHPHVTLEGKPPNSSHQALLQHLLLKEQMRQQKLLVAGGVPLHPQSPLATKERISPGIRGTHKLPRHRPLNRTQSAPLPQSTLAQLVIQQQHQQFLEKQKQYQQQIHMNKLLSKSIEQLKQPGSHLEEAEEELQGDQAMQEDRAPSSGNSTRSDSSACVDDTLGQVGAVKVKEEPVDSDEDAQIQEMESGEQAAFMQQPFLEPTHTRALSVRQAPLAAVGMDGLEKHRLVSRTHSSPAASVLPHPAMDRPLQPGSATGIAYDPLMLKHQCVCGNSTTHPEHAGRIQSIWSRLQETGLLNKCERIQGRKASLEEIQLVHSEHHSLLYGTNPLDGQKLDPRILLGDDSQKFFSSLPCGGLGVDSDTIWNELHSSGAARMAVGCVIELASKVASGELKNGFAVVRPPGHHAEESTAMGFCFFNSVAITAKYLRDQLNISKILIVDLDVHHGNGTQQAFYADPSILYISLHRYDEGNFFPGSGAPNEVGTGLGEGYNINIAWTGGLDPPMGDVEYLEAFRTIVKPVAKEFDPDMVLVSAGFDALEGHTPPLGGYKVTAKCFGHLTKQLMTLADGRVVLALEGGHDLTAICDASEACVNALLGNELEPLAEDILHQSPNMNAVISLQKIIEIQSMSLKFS", "test": "Inhibition of HDAC9 (unknown origin) assessed as residual activity at 1 x 10^-5M (reference value: 97.55%)", "conditions": "dose 1.0 10^-5M"}, "Histone deacetylase 1 [2]": {"biological_target": "T1, Histone deacetylase 1 (Homo sapiens, UniProt Q13547)", "T1 sequence (Q13547 whole entry, the tested form may be a part)": "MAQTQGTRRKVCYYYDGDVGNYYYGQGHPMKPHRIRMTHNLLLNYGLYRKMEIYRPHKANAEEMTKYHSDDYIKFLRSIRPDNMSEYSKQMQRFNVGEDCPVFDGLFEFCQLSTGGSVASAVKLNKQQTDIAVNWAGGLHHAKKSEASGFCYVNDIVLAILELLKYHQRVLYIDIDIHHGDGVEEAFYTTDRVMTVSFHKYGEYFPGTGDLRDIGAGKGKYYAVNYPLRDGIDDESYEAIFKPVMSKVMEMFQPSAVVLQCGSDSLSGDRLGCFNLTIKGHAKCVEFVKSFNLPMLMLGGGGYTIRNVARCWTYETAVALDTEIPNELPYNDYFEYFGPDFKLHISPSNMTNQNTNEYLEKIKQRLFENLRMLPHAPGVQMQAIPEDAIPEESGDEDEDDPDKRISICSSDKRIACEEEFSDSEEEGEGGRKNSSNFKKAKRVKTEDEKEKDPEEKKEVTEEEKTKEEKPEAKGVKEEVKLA", "test": "Inhibition of HDAC1 (unknown origin) using p53 residues 379 to 382 [RHKK(Ac)] as fluorogenic substrate assessed as residual activity at 1.23 x 10^-7M (reference value: 98.06%)", "conditions": "dose 1.23 10^-7M"}, "Histone deacetylase 1 [3]": {"biological_target": "T1, Histone deacetylase 1", "test": "Inhibition of HDAC1 (unknown origin) using p53 residues 379 to 382 [RHKK(Ac)] as fluorogenic substrate assessed as residual activity at 4.57 x 10^-9M (reference value: 98.06%)", "conditions": "dose 4.57 10^-9M"}, "Histone deacetylase 1 [4]": {"biological_target": "T1, Histone deacetylase 1", "test": "Inhibition of HDAC1 (unknown origin) using p53 residues 379 to 382 [RHKK(Ac)] as fluorogenic substrate assessed as residual activity at 5.08 x 10^-10M (reference value: 98.06%)", "conditions": "dose 5.08 10^-10M"}, "Histone deacetylase 3 [5]": {"biological_target": "T2, Histone deacetylase 3 (Homo sapiens, UniProt O15379)", "T2 sequence (O15379 whole entry, the tested form may be a part)": "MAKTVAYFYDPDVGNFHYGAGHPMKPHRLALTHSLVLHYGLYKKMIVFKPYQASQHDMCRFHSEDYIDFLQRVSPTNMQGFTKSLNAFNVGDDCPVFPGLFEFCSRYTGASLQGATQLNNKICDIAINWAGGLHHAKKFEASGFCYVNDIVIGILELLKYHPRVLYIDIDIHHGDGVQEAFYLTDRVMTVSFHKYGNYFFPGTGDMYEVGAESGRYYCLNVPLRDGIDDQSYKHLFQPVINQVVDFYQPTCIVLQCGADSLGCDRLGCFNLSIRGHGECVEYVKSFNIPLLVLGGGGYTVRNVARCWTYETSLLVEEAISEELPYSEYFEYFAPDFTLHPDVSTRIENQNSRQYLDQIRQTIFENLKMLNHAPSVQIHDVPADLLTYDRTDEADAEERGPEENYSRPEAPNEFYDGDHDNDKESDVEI", "test": "Inhibition of HDAC3 (unknown origin) using p53 residues 379 to 382 [RHKK(Ac)] as fluorogenic substrate assessed as residual activity at 3.33 x 10^-6M (reference value: 103.08%)", "conditions": "dose 3.33 10^-6M"}, "[6]": {"biological_target": "Histone deacetylase 5 (Homo sapiens) (UniProt Q9UQL6)", "sequence (Q9UQL6 whole entry)": "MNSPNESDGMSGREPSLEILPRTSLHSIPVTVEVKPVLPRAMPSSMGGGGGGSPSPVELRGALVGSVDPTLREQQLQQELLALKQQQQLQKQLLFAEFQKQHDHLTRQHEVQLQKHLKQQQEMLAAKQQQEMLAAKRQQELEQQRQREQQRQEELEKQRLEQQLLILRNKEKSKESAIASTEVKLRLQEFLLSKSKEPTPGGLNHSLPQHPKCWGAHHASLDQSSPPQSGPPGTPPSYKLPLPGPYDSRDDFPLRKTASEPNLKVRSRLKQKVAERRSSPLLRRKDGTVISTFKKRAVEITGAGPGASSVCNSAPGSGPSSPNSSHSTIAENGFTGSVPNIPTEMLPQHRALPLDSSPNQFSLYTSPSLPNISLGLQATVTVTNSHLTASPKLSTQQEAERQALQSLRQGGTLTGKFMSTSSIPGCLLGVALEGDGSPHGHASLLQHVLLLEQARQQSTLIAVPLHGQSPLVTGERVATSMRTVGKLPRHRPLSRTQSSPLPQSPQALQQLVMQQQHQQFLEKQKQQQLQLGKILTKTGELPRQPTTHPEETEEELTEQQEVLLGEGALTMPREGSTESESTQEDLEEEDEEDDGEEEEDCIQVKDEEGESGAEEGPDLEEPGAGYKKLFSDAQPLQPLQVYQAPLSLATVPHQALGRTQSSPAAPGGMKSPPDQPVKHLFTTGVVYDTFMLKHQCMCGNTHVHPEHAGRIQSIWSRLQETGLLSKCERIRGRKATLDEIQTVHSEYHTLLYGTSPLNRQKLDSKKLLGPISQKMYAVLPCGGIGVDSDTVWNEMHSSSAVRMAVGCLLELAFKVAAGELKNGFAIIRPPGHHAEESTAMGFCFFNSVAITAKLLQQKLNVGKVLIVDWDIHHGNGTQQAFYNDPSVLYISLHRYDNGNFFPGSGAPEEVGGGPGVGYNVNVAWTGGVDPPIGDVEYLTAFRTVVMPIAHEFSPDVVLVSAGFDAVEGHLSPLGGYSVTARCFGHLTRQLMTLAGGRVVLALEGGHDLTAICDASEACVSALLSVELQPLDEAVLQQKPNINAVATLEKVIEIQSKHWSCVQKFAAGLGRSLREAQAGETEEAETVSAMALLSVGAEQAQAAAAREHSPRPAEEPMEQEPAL", "test": "Inhibition of HDAC5 (unknown origin) assessed as residual activity at 4.12 x 10^-8M (reference value: 100%)", "conditions": "dose 4.12 10^-8M"}, "[7]": {"biological_target": "T3, Histone deacetylase 7 (Homo sapiens) (UniProt Q8WUI4)", "T3 sequence (whole entry)": "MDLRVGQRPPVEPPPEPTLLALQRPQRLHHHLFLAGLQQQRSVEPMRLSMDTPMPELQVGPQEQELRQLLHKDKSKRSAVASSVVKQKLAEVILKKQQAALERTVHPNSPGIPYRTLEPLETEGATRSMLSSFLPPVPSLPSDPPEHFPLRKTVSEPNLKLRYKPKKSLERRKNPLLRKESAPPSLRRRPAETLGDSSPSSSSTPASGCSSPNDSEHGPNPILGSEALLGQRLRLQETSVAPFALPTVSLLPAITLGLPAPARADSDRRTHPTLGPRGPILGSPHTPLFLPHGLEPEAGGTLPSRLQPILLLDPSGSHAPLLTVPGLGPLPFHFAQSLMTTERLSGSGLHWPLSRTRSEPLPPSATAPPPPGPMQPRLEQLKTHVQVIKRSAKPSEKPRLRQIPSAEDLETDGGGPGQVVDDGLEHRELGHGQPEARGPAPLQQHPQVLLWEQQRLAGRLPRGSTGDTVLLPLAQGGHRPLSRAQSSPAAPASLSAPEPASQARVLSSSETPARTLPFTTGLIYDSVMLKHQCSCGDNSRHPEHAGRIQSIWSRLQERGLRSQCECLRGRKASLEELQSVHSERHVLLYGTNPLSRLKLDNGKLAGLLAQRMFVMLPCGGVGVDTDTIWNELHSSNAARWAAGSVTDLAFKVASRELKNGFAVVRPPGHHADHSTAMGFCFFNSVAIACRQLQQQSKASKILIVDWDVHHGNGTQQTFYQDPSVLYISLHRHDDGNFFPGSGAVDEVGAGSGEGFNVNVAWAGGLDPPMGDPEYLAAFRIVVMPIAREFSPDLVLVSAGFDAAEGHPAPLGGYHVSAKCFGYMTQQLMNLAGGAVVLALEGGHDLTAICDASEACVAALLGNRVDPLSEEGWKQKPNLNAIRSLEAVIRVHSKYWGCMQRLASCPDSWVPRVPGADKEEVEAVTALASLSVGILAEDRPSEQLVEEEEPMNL", "test": "Inhibition of HDAC7 (unknown origin) assessed as residual activity at 3.70 x 10^-7M (reference value: 102.66%)", "conditions": "dose 3.7 10^-7M"}, "[8]": {"biological_target": "Histone deacetylase 9 (Homo sapiens) (UniProt Q9UKV0)", "test": "Inhibition of HDAC9 (unknown origin) assessed as residual activity at 1.37 x 10^-8M (reference value: 97.55%)", "conditions": "dose 1.37 10^-8M"}, "[9]": {"biological_target": "Histone deacetylase 9 (Homo sapiens) (UniProt Q9UKV0)", "test": "Inhibition of HDAC9 (unknown origin) assessed as residual activity at 5.08 x 10^-10M (reference value: 97.55%)", "conditions": "dose 5.08 10^-10M"}, "[10]": {"biological_target": "T4, Polyamine deacetylase HDAC10 (Homo sapiens) (UniProt Q969S8)", "T4 sequence (whole entry)": "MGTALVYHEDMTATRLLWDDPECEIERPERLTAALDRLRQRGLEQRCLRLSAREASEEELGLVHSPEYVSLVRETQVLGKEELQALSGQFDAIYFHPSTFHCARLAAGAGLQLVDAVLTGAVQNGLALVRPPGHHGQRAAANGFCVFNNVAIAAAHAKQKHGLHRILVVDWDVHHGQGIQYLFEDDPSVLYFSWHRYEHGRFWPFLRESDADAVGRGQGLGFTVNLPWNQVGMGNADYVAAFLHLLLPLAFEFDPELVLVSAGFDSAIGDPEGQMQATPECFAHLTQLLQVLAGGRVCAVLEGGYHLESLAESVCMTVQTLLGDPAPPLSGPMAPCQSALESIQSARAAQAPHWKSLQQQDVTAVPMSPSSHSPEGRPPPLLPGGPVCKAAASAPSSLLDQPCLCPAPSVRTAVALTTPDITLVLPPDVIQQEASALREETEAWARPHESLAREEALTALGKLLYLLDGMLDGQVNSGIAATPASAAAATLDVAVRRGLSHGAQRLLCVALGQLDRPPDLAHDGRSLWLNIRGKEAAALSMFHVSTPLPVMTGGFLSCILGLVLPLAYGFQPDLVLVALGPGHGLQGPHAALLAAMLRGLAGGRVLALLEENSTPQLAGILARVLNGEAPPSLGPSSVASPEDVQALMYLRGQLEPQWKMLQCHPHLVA", "test": "Inhibition of HDAC10 (unknown origin) assessed as residual activity at 1.37 x 10^-8M (reference value: 101.54%)", "conditions": "dose 1.37 10^-8M"}, "Histone deacetylase 3 [11]": {"biological_target": "T2, Histone deacetylase 3", "test": "Inhibition of HDAC3 (unknown origin) using p53 residues 379 to 382 [RHKK(Ac)] as fluorogenic substrate"}, "HL-60": {"system": "HL-60", "test": "Downregulation of HDAC1 protein expression in human HL-60 cells by Western blot analysis", "assay_type": "functional, cell-based", "conditions": "dose 0.2-5 µM"}}, "note": "pIC50: −log10 of the molar value.", "data": [{"smiles": "NC(=O)c1cccc2[nH]c(-c3ccc(NCc4ccc(C(=O)Nc5ccccc5N)cc4)cc3)nc12", "values": [{"measurement": "pIC50", "setting": "A549", "value": "< 5.30"}, {"measurement": "Activity", "setting": "[1]", "value": 100, "unit": "%"}, {"measurement": "Activity", "setting": "Histone deacetylase 1 [2]", "value": 31.3, "unit": "%"}, {"measurement": "Activity", "setting": "Histone deacetylase 1 [3]", "value": 88.7, "unit": "%"}, {"measurement": "Activity", "setting": "Histone deacetylase 1 [4]", "value": 93.5, "unit": "%"}, {"measurement": "Activity", "setting": "Histone deacetylase 3 [5]", "value": 12.8, "unit": "%"}, {"measurement": "Activity", "setting": "[6]", "value": 93.1, "unit": "%"}, {"measurement": "Activity", "setting": "[7]", "value": 91.9, "unit": "%"}, {"measurement": "Activity", "setting": "[8]", "value": 84.9, "unit": "%"}, {"measurement": "Activity", "setting": "[9]", "value": 93.7, "unit": "%"}, {"measurement": "Activity", "setting": "[10]", "value": 97.7, "unit": "%"}, {"measurement": "pIC50", "setting": "Histone deacetylase 3 [11]", "value": 6.41}, {"measurement": "Activity", "setting": "HL-60", "value": "Dose-Dependent Effect"}]}]}
